Results from patent US11480578B2, “Method for identifying a biomarker indicative of a reduced drug response using a thermal shift assay” (Pelago Bioscience AB, priority 2014, dated 2022).

Test system: Methionine aminopeptidase-2
Assay: cell resolved thermal shift assay (FACS sorting, heating, Western blot)
Format: cell-based, mouse
Conditions: TNP-470 final concentration 2 μM for one hour; mixed cells FACS sorted; heated 44 to 52° C.; MetAP-2 Western blot; FIG. 3
Protocol: Human cancer cell line K562 and mouse fibrosarcoma cell line T241 with endogenous expression of GFP, were cultured to short-term passages (3-15) in an incubator chamber. The T241 cells were treated with the MetAP-2 inhibitor TNP-470 (final concentration 2 μM) for one hour in the incubator chamber. Following incubation, the cells were washed by repeated centrifugation to pellet cells and re-dissolve in PBS. After this step, the cells were pooled into a PBS buffer. This mix of cells was then subjected to FACS sorting using a MoFlo XDP from Beckman Coulter. Cells were either sorted by their GFP fluorescence (T241) or by the lack of fluorescence (K562). The sorted cells were then aliquoted in 8 tube PCR strips and subjected to heating to temperatures ranging from 44 to 52° C. with two degree increments. After heating, the cells were snap frozen in N2 (I) and freeze thawed. The resulting cell debris together with precipitated protein was pelleted by centrifugation at 20000*g for 20 minutes. The supernatants, containing various amount of the target protein (MetAP-2) were subjected to standard SDS-Page and Western blot analysis using a specific primary MetAP-2 antibody (Santa Cruz Biotechnology SC-365637) at 1:400 dilution in non-fat dietary milk.

With `CO[C@@H]1[C@H](OC(=O)NC(=O)CCl)CC[C@]2(CO2)[C@H]1[C@@]1(C)O[C@@H]1CC=C(C)C` [TNP-470] the “stabilisation of the target protein Methionine aminopeptidase-2 (dark band shows presence of heat stabilised protein)” value was “stabilisation”.
